Test results: patent US20230167127A1, “COMPOUNDS AND THEIR USE IN THE TREATMENT OF BACTERIAL INFECTION” (Hoffmann-La Roche Inc., priority 2020, published 2023)
Like-named read-outs stand apart in the source and are kept apart here.

Tested on: Escherichia coli ATCC 25922
Test: 50% growth inhibitory concentration (IC50) determination, Iso-Sensitest broth dilution
Format: cell-based
Settings: strain Escherichia coli ATCC 25922, 10-point broth dilution, optical density at 600 nm over 16 h, read-out: Escherichia coli growth inhibition IC50
How it was run: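 10-point twofold Iso-Sensitest broth dilution (e.g. 50 to 0.097 μM final) with DMSO stocks, incubated at 35±2° C. Growth followed by OD 600 nm every 20 min over 16 h; IC50 derived from growth inhibition during logarithmic phase.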

[1] = Escherichia coli, ATCC25922, 16 h

Structure (SMILES)	IC50 [1]	IC50
O=C1COc2ccc(N3CC(CCCNC4Cc5ccnc(Cl)c5C4)OC3=O)nc2N1 (centres unmarked) [Example 92, 6-[5-[3-[(1-chloro-6,7-dihydro-5H-cyclopenta[c]pyridin-6-yl)amino]propyl]-2-oxo-1,3-oxazolidin-3-yl]-4H-pyrido[3,2-b][1,4]oxazin-3-one]	373 nM	–
Cc1nccc2c1CC(CNCCC1CN(c3ccc4c(n3)NC(=O)CO4)C(=O)O1)C2O (racemic) [Example 43, 6-[2-oxo-5-[2-[[rac-(5,6-trans)-5-hydroxy-1-methyl-6,7-dihydro-5H-cyclopenta[c]pyridin-6-yl]methylamino]ethyl]-1,3-oxazolidin-3-yl]-4H-pyrido[3,2-b][1,4]oxazin-3-one; formic acid]	4140 nM	–
O=C1COc2ccc(N3CC(CNC4Cc5ccc(Cl)cc5C4)OC3=O)nc2N1 (centres unmarked) [Example 25, 6-[5-[[(5-chloro-2,3-dihydro-1H-inden-2-yl)amino]methyl]-2-oxo-1,3-oxazolidin-3-yl]-4H-pyrido[3,2-b] [1,4]oxazin-3-one]	4070 nM	–
N#Cc1cccc2c1CC(CCN1CC3(C1)CN(c1ccc4c(n1)NC(=O)CO4)C(=O)O3)C2 (centres unmarked) [Example 33, 2-[2-[6-oxo-7-(3-oxo-4H-pyrido[3,2-b][1,4]oxazin-6-yl)-5-oxa-2,7-diazaspiro[3.4]octan-2-yl]ethyl]-2,3-dihydro-1H-indene-4-carbonitrile]	< 97.7 nM	–
O=C1COc2ccc(N3CC(CNC4Cc5cccc(Cl)c5C4)OC3=O)nc2N1 (centres unmarked) [Example 22, 6-[5-[[(4-chloro-2,3-dihydro-1H-inden-2-yl)amino]methyl]-2-oxo-1,3-oxazolidin-3-yl]-4H-pyrido[3,2-b][1,4]oxazin-3-one]	8530 nM	–
N#Cc1cccc2c1CC(CNC1CCC3C(C1)OC(=O)N3c1ccc3c(n1)NC(=O)CO3)C2 (racemic) [Example 99, 2-[[[rac-3a,7a-cis-6,7a-trans-2-oxo-3-(3-oxo-4H-pyrido[3,2-b][1,4]oxazin-6-yl)-3a,4,5,6,7,7a-hexahydro-1,3-benzoxazol-6-yl]amino]methyl]-2,3-dihydro-1H-indene-4-carbonitrile; formic acid]	–	516 nM
NC1c2cccc(Cl)c2CC1CNCCC1CN(c2cnc3c(n2)NC(=O)CO3)C(=O)O1 (racemic) [Example 136, 6-[2-oxo-5-[2-[[rac-1,2-trans-1-amino-4-chloro-2,3-dihydro-1H-inden-2-yl]methylamino]ethyl]-1,3-oxazolidin-3-yl]-4H-pyrazino[2,3-b][1,4]oxazin-3-one; formic acid]	112 nM	–
Cc1ncc(F)c2c1CC(CNCCC1CN(c3cnc4c(n3)NC(=O)CO4)C(=O)O1)C2 (centres unmarked) [Example 51, 6-[5-[2-[(4-fluoro-1-methyl-6,7-dihydro-5H-cyclopenta[c]pyridin-6-yl)methylamino]ethyl]-2-oxo-1,3-oxazolidin-3-yl]-4H-pyrazino[2,3-b][1,4]oxazin-3-one]	< 97.7 nM	–
NCCOc1ccc2c(c1Cl)CC(CNCCC1CN(c3ccc4c(n3)NC(=O)CO4)C(=O)O1)C2 (centres unmarked) [Example 116, 6-[5-[2-[[5-(2-Aminoethoxy)-4-chloro-2,3-dihydro-1H-inden-2-yl]methylamino]ethyl]-2-oxo-1,3-oxazolidin-3-yl]-4H-pyrido[3,2-b][1,4]oxazin-3-one]	< 97.7 nM	–
CC(C)(CC1CN(c2ccc3c(n2)NC(=O)CO3)C(=O)O1)NCC1Cc2cccc(C#N)c2C1 (centres unmarked) [Example 29, 2-[[[2-methyl-1-[2-oxo-3-(3-oxo-4H-pyrido[3,2-b][1,4]oxazin-6-yl)-1,3-oxazolidin-5-yl]propan-2-yl]amino]methyl]-2,3-dihydro-1H-indene-4-carbonitrile]	945 nM	–
NC1(COc2ccc3c(c2Cl)CC(NCCCC2CN(c4ccc5c(n4)NC(=O)CO5)C(=O)O2)C3)CC1 (centres unmarked) [Example 119, 6-[5-[3-[[5-[(1-aminocyclopropyl)methoxy]-4-chloro-2,3-dihydro-1H-inden-2-yl]amino]propyl]-2-oxo-1,3-oxazolidin-3-yl]-4H-pyrido[3,2-b][1,4]oxazin-3-one; formic acid]	< 97.7 nM	–
CNC(=O)COc1ccc2c(c1C#N)CC(CNCCC1CN(c3ccc4c(n3)NC(=O)CO4)C(=O)O1)C2 (centres unmarked) [Example 48, 2-[[4-cyano-2-[[2-[2-oxo-3-(3-oxo-4H-pyrido[3,2-b][1,4]oxazin-6-yl)-1,3-oxazolidin-5-yl]ethylamino]methyl]-2,3-dihydro-1H-inden-5-yl]oxy]-N-methylacetamide]	106 nM	–

The remaining lines, values ahead:

IC50 [1]	IC50	Structure (SMILES)
< 97.7 nM	–	Cc1ncc(F)c2c1C[C@@H](CNCC[C@H]1CN(c3cnc4c(n3)NC(=O)CO4)C(=O)O1)C2 [Example 428, 6-[(5S)-5-[2-[[(6R)-4-fluoro-1-methyl-6,7-dihydro-5H-cyclopenta[c]pyridin-6-yl]methylamino]ethyl]-2-oxo-1,3-oxazolidin-3-yl]-4H-pyrazino[2,3-b][1,4]oxazin-3-one]
1080 nM	–	NC1c2cccc(Cl)c2CC1CNCCc1nn(-c2cnc3c(n2)NC(=O)CO3)c(=O)o1 (racemic) [Example 337, 6-[2-oxo-5-[2-[[rac-1,2-trans-1-amino-4-chloro-2,3-dihydro-1H-inden-2-yl]methylamino]ethyl]-1,3,4-oxadiazol-3-yl]-4H-pyrazino[2,3-b][1,4]oxazin-3-one; formic acid]
< 97.7 nM	–	NC(=O)COc1cc(F)c2c(c1F)CC(CNCCC1CN(c3cnc4c(n3)NC(=O)CO4)C(=O)O1)C2 (centres unmarked) [Example 312, 2-[[4,7-difluoro-2-[[2-[2-oxo-3-(3-oxo-4H-pyrazino[2,3-b][1,4]oxazin-6-yl)-1,3-oxazolidin-5-yl]ethylamino]methyl]-2,3-dihydro-1H-inden-5-yl]oxy]acetamide]
1570 nM	–	N#Cc1cccc2c1CC(CNCC1CN(c3ccc4c(n3)NC(=O)CO4)C(=O)O1)C2N (racemic) [Example 229, rac-1,2-trans-1-Amino-2-((((2-oxo-3-(3-oxo-3,4-dihydro-2H-pyrido[3,2-b][1,4]oxazin-6-yl)oxazolidin-5-yl)methyl)amino)methyl)-2,3-dihydro-1H-indene-4-carbonitrile]
< 97.7 nM	–	NC1c2cccc(Cl)c2CC1CNCCc1nn(-c2ccc3c(c2)NC(=O)CO3)c(=O)o1 (racemic) [Example 147, 6-[2-oxo-5-[2-[[rac-1,2-trans-1-amino-4-chloro-2,3-dihydro-1H-inden-2-yl]methylamino]ethyl]-1,3,4-oxadiazol-3-yl]-4H-1,4-benzoxazin-3-one; formic acid]
< 97.7 nM	–	CC(C)(N)COc1cc(C#N)c2c(c1)CC(CNCCC1CN(c3cnc4c(n3)NC(=O)CO4)C(=O)O1)C2 (centres unmarked) [Example 204, 6-(2-amino-2-methylpropoxy)-2-(((2-(2-oxo-3-(3-oxo-3,4-dihydro-2H-pyrazino[2,3-b][1,4]oxazin-6-yl)oxazolidin-5-yl)ethyl)amino)methyl)-2,3-dihydro-1H-indene-4-carbonitrile]
365 nM	–	CNC(=O)COc1cc(Cl)c2c(c1)C(N)C(CNCCC1CN(c3ccc4c(n3)NC(=O)CO4)C(=O)O1)C2 (racemic) [Example 400, N-methyl-2-[[rac-2,3-trans-3-amino-7-chloro-2-[[2-[2-oxo-3-(3-oxo-4H-pyrido[3,2-b][1,4]oxazin-6-yl)-1,3-oxazolidin-5-yl]ethylamino]methyl]-2,3-dihydro-1H-inden-5-yl]oxy]acetamide; formic acid]
< 97.7 nM	–	NC1c2cccc(F)c2CC1CNCCC1CN(c2cnc3c(n2)NC(=O)CO3)C(=O)O1 (racemic) [Example 164, 6-[5-[2-[(rac-1,2-trans-1-amino-4-fluoro-2,3-dihydro-1H-inden-2-yl)methylamino]ethyl]-2-oxo-1,3-oxazolidin-3-yl]-4H-pyrazino[2,3-b][1,4]oxazin-3-one; formic acid]
751 nM	–	O=C1COc2ccc(N3CC(CCNCC4Cc5ccncc5C4)OC3=O)nc2N1 (centres unmarked) [Example 418, 6-[5-[2-(6,7-Dihydro-5H-cyclopenta[c]pyridin-6-ylmethylamino)ethyl]-2-oxo-1,3-oxazolidin-3-yl]-4H-pyrido[3,2-b][1,4]oxazin-3-one]
< 97.7 nM	–	CC(N)COc1cc(F)c2c(c1)CC(CCN1CC3(C1)CN(c1cnc4c(n1)NC(=O)CO4)C(=O)O3)C2 (centres unmarked) [Example 327, 6-[2-[2-[6-(2-aminopropoxy)-4-fluoro-2,3-dihydro-1H-inden-2-yl]ethyl]-6-oxo-5-oxa-2,7-diazaspiro[3.4]octan-7-yl]-4H-pyrazino[2,3-b][1,4]oxazin-3-one]
–	679 nM	Cc1ncc(F)c2c1CC(CN1CCC3(CN(c4ccc5c(n4)NC(=O)CO5)C(=O)O3)C(CN)C1)C2 (racemic) [Example 251, 6-[rac-5,6-cis-6-(Aminomethyl)-8-[(4-fluoro-1-methyl-6,7-dihydro-5H-cyclopenta[c]pyridin-6-yl)methyl]-2-oxo-1-oxa-3,8-diazaspiro[4.5]decan-3-yl]-4H-pyrido[3,2-b][1,4]oxazin-3-one]
446 nM	–	O=C1COc2ncc(N3CC(CCNCC4Cc5cc(OCCN6CCOC6=O)cc(F)c5C4)OC3=O)nc2N1 (centres unmarked) [Example 304, 6-[5-[2-[[4-fluoro-6-[2-(2-oxo-1,3-oxazolidin-3-yl)ethoxy]-2,3-dihydro-1H-inden-2-yl]methylamino]ethyl]-2-oxo-1,3-oxazolidin-3-yl]-4H-pyrazino[2,3-b][1,4]oxazin-3-one; formic acid]
163 nM	–	Cc1ncc(F)c2c1CC(N(C)CCCc1cn(-c3cnc4c(n3)NC(=O)CO4)c(=O)o1)C2 (centres unmarked) [Example 303, 6-[5-[3-[(4-Fluoro-1-methyl-6,7-dihydro-5H-cyclopenta[c]pyridin-6-yl)-methylamino]propyl]-2-oxo-1,3-oxazol-3-yl]-4H-pyrazino[2,3-b][1,4]oxazin-3-one; formic acid]
< 97.7 nM	–	O=C1COc2ncc(-n3cc(CCNCC4Cc5cncc(F)c5C4)oc3=O)nc2N1 (centres unmarked) [Example 372, 6-[5-[2-[(4-fluoro-6,7-dihydro-5H-cyclopenta[e]pyridin-6-yi)methylamino]ethyl]-2-oxo-1,3-oxazol-3-yl]-4H-pyrazino[2,3-b][1,4]oxazin-3-one]
